Experiment: xn = mol fraction of the nth substance listed
Conditions: 101 kPa

Cn1cc[n+](CCCN)c1.F[B-](F)(F)F + CS(C)=O
Conditions | electrical conductivity [S/m] | viscosity [mPa·s]
288.15 K, x1 = 0.1003 | 0.829 | 17.63
288.15 K, x1 = 0.2 | 0.632 | 34.87
288.15 K, x1 = 0.2997 | 0.465 | 54.65
288.15 K, x1 = 0.3997 | 0.288 | 75.94
288.15 K, x1 = 0.4998 | 0.187 | 98.4
288.15 K, x1 = 0.5999 | 0.124 | 122.2
288.15 K, x1 = 0.7001 | 0.078 | 147.4
288.15 K, x1 = 0.8109 | 0.044 | 176.7
288.15 K, x1 = 0.8998 | 0.023 | 201.6
288.15 K, x1 = 1 | 0.011 | 231.2
293.15 K, x1 = 0.1003 | 0.943 | 13.32
293.15 K, x1 = 0.2 | 0.716 | 26.44
293.15 K, x1 = 0.4998 | 0.222 | 76.63
293.15 K, x1 = 0.7001 | 0.097 | 116.9
293.15 K, x1 = 0.8109 | 0.056 | 140.8
293.15 K, x1 = 1 | 0.018 | 185.4
298.15 K, x1 = 0.2 | 0.81 | 20.51
298.15 K, x1 = 0.2997 | 0.609 | 32.66
298.15 K, x1 = 0.3997 | 0.395 | 45.88
298.15 K, x1 = 0.4998 | 0.268 | 60.22
298.15 K, x1 = 0.5999 | 0.186 | 76.06
298.15 K, x1 = 0.7001 | 0.122 | 93.45
298.15 K, x1 = 0.8109 | 0.072 | 113.4
298.15 K, x1 = 0.8998 | 0.046 | 130.1
303.15 K, x1 = 0.1003 | 1.22 | 7.961
303.15 K, x1 = 0.2 | 0.919 | 16.1
303.15 K, x1 = 0.3997 | 0.462 | 36.37
303.15 K, x1 = 0.4998 | 0.317 | 47.87
303.15 K, x1 = 0.5999 | 0.228 | 60.72
303.15 K, x1 = 1 | 0.04 | 121.1
308.15 K, x1 = 0.1003 | 1.37 | 6.38
308.15 K, x1 = 0.2 | 1.05 | 13.1
308.15 K, x1 = 0.2997 | 0.799 | 20.89
308.15 K, x1 = 0.3997 | 0.533 | 29.16
308.15 K, x1 = 0.4998 | 0.37 | 38.73
308.15 K, x1 = 0.5999 | 0.271 | 49.63
308.15 K, x1 = 0.7001 | 0.183 | 61.64
308.15 K, x1 = 0.8998 | 0.082 | 87.11
313.15 K, x1 = 0.2 | 1.17 | 10.81
313.15 K, x1 = 0.2997 | 0.894 | 17.08
313.15 K, x1 = 0.3997 | 0.617 | 24.03
313.15 K, x1 = 0.4998 | 0.435 | 31.72
313.15 K, x1 = 0.7001 | 0.221 | 50.72
313.15 K, x1 = 0.8998 | 0.105 | 72.01
313.15 K, x1 = 1 | 0.072 | 83.06
318.15 K, x1 = 0.1003 | 1.71 | 4.406
318.15 K, x1 = 0.2 | 1.32 | 8.853
318.15 K, x1 = 0.2997 | 1.01 | 14.22
318.15 K, x1 = 0.4998 | 0.506 | 26.45
318.15 K, x1 = 0.5999 | 0.378 | 33.63
318.15 K, x1 = 0.8109 | 0.183 | 51.83
318.15 K, x1 = 0.8998 | 0.134 | 60.04
318.15 K, x1 = 1 | 0.094 | 69.26
323.15 K, x1 = 0.1003 | 1.91 | 3.679
323.15 K, x1 = 0.2 | 1.47 | 7.468
323.15 K, x1 = 0.2997 | 1.13 | –

Source: a compilation of properties of binary mixtures (doi:10.1007/s10953-023-01258-3)
